Source: patent US20080193943A1, “Companion diagnostic assays for cancer therapy” (ABBOTT LABORATORIES, priority 2006, published 2008)

Experiments:
solid tumors = settings: from Oltersdorf, Nature 435: 677-681, 2005; cited from earlier work
NCI-H146 = experiment: sensitivity of SCLC cell line to ABT-737; assay type: cell-based; settings: Homo sapiens, read-out: sensitivity to ABT-737 (EC50 class)
Experimental: (§1) The following SCLC cell lines were obtained from ATCC (Manassis, Va.): NCI-H889, NCI-H1963, NCI-H1417, NCI-H146, NCI-H187, DMS53, NCI-H510, NCI-H1209, NCI-H526, NCI-H211, NCI-H345, NCI-H524, NCI-H69, NCI-H748, DMS79, NCI-H711, SHP77, NCI-446, NCI-H1048, NCI-H82, NCI-H196, SW1271, H69AR. All cells were cultured in the ATCC recommended media at 37° C. in a humidified atmosphere containing 5% CO2. Genomic DNA was isolated from the cell lines using a DNAeasy kit (Qiagen, Valencia, Calif.).
(§2) The 23 SCLC cell lines were tested for sensitivity to ABT-737 using the procedure described in Oltersdorf, T., “An inhibitor of Bcl-2 family proteins induces regression of solid tumours”, Nature, 435: 677-681, 2005, with a cell line classified as sensitive if its EC50<1 μM and as resistant if its EC50>10 μM. The sensitive cell line group consisted of NCI-H889, NCI-H1963, NCI-H1417, NCI-H146, NCI-H187, DMS 53, NCI-H510, NCI-H209, NCI-H526, NCI-H211, NCI-H345, and NCI-H524 and the resistant cell line group was comprised of NCI-H82, NCI-H196, SW1271, and H69AR.

NCI-H82 = experiment: sensitivity of SCLC cell line to ABT-737; assay type: cell-based; settings: Homo sapiens, read-out: sensitivity to ABT-737 (EC50 class)
Experimental: as §1, §2

NCI-H526 = experiment: sensitivity of SCLC cell line to ABT-737; assay type: cell-based; settings: Homo sapiens, read-out: sensitivity to ABT-737 (EC50 class)
Experimental: as §1, §2

NCI-H209 = experiment: sensitivity of SCLC cell line to ABT-737; assay type: cell-based; settings: Homo sapiens, read-out: sensitivity to ABT-737 (EC50 class)
Experimental: as §1, §2

NCI-H187 = experiment: sensitivity of SCLC cell line to ABT-737; assay type: cell-based; settings: Homo sapiens, read-out: sensitivity to ABT-737 (EC50 class)
Experimental: as §1, §2

NCI-H1963 = experiment: sensitivity of SCLC cell line to ABT-737; assay type: cell-based; settings: Homo sapiens, read-out: sensitivity to ABT-737 (EC50 class)
Experimental: as §1, §2

NCI-H1417 = experiment: sensitivity of SCLC cell line to ABT-737; assay type: cell-based; settings: Homo sapiens, read-out: sensitivity to ABT-737 (EC50 class)
Experimental: as §1, §2

SW1271 = experiment: sensitivity of SCLC cell line to ABT-737; assay type: cell-based; settings: Homo sapiens, read-out: sensitivity to ABT-737 (EC50 class)
Experimental: as §1, §2

NCI-H510 = experiment: sensitivity of SCLC cell line to ABT-737; assay type: cell-based; settings: Homo sapiens, read-out: sensitivity to ABT-737 (EC50 class)
Experimental: as §1, §2

NCI-H196 = experiment: sensitivity of SCLC cell line to ABT-737; assay type: cell-based; settings: Homo sapiens, read-out: sensitivity to ABT-737 (EC50 class)
Experimental: as §1, §2

NCI-H211 = experiment: sensitivity of SCLC cell line to ABT-737; assay type: cell-based; settings: Homo sapiens, read-out: sensitivity to ABT-737 (EC50 class)
Experimental: as §1, §2

DMS 53 = experiment: sensitivity of SCLC cell line to ABT-737; assay type: cell-based; settings: Homo sapiens; DMS 53 SCLC cell line; read-out: sensitivity to ABT-737 (EC50 class)
Experimental: as §1, §2

NCI-H889 = experiment: sensitivity of SCLC cell line to ABT-737; assay type: cell-based; settings: Homo sapiens, read-out: sensitivity to ABT-737 (EC50 class)
Experimental: as §1, §2

NCI-H524 = experiment: sensitivity of SCLC cell line to ABT-737; assay type: cell-based; settings: Homo sapiens, read-out: sensitivity to ABT-737 (EC50 class)
Experimental: as §1, §2

H69AR = experiment: sensitivity of SCLC cell line to ABT-737; assay type: cell-based; settings: Homo sapiens, read-out: sensitivity to ABT-737 (EC50 class)
Experimental: as §1, §2

NCI-H345 = experiment: sensitivity of SCLC cell line to ABT-737; assay type: cell-based; settings: Homo sapiens, read-out: sensitivity to ABT-737 (EC50 class)
Experimental: as §1, §2

[1] = tested on: SCLC and lymphoma cell lines; settings: from Oltersdorf, Nature 435: 677-681, 2005; cited from earlier work

EC50 (NCI-H146): < 1 µM
EC50 (NCI-H82): > 10 µM
EC50 (NCI-H526): < 1 µM
EC50 (NCI-H209): < 1 µM
EC50 (NCI-H187): < 1 µM
EC50 (NCI-H1963): < 1 µM
EC50 (NCI-H1417): < 1 µM
EC50 (SW1271): > 10 µM
EC50 (NCI-H510): < 1 µM
EC50 (NCI-H196): > 10 µM
EC50 (NCI-H211): < 1 µM
EC50 (DMS 53): < 1 µM
EC50 (NCI-H889): < 1 µM
EC50 (NCI-H524): < 1 µM
EC50 (H69AR): > 10 µM
EC50 (NCI-H345): < 1 µM
Compound: CN(C)CC[C@H](CSc1ccccc1)Nc1ccc(S(=O)(=O)NC(=O)c2ccc(N3CCN(Cc4ccccc4-c4ccc(Cl)cc4)CC3)cc2)cc1[N+](=O)[O-] [ABT-737, N-(4-(4-((4′-chloro(1,1′-biphenyl)-2-yl)methyl)piperazin-1-yl)benzoyl)-4-(((1R)-3-(dimethylamino)-1-((phenylsulfanyl)methyl)propyl)amino)-3-nitrobenzenesulfonamide]
effect on solid tumors (solid tumors): induce regression of solid tumors
potency against a diverse panel of human cancer cell lines [1]: selective potency against SCLC and lymphoma cell lines
